Our source for the AC50 values is ChEMBL document CHEMBL5291721, “A preclinical secondary pharmacology resource illuminates target-adverse drug reaction associations of marketed drugs” (Nat Commun, 2023).

The AC50 is the midpoint of the concentration-response curve, whichever way the signal moves. A lower AC50 goes with greater potency.

SMILES strings stand for the structures. Several values for one entry are separate records, joined by “and”; a condition that tells them apart may be missing. Identical values can stand only once. Some results are limits rather than exact numbers.

Experiment [1] addresses Growth hormone secretagogue receptor type 1 (Homo sapiens, UniProt Q92847).
The next experiment concerns the target T1, B2 bradykinin receptor (Homo sapiens, UniProt P30411).
T1 sequence (P30411 whole entry): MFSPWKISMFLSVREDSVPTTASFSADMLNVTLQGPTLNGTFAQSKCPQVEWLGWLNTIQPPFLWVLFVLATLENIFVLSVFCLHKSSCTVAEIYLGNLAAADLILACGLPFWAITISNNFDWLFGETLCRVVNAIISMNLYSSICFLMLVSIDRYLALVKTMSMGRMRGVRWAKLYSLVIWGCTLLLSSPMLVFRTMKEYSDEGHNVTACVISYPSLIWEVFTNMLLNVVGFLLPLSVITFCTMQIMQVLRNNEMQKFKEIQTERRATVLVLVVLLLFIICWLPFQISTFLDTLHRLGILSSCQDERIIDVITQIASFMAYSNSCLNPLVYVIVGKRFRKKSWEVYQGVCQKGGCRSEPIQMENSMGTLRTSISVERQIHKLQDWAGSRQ

For experiment [2], the target named is 5-hydroxytryptamine receptor 2B (Homo sapiens, UniProt P41595). Format: functional, cell-based.
Another experiment addresses T2, Adenosine receptor A3 (Homo sapiens, UniProt P0DMS8).
T2 sequence (P0DMS8 whole entry): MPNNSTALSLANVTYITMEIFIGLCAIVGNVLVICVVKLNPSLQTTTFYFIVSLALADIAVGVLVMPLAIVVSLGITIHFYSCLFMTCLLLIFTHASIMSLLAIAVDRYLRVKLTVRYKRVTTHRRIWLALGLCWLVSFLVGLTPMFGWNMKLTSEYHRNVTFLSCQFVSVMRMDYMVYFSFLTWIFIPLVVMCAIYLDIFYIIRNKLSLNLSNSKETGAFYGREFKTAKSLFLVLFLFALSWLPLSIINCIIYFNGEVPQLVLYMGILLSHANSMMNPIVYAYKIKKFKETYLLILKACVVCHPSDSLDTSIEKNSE

Experiment [3] concerns the target cGMP-inhibited 3',5'-cyclic phosphodiesterase 3A (Homo sapiens, UniProt Q14432). Format: functional.
The target in experiment [4] is T3, Alpha-2A adrenergic receptor (Homo sapiens, UniProt P08913).
T3 sequence (P08913 whole entry): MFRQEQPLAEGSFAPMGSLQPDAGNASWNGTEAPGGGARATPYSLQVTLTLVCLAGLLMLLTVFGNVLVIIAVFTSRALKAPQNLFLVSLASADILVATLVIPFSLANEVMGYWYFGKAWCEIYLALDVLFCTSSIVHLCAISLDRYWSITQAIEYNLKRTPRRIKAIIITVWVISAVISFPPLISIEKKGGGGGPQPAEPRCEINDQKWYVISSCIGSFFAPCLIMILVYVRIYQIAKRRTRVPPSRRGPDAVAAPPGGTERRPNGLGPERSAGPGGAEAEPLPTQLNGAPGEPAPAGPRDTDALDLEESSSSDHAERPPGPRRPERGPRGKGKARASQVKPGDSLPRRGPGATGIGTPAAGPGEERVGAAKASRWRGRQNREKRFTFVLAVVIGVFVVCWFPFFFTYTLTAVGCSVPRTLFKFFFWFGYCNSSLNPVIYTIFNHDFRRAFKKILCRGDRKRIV
Format: functional, cell-based.

Experiment [5] has as its target T4, Type-1 angiotensin II receptor (Homo sapiens, UniProt P30556).
T4 sequence (P30556 whole entry): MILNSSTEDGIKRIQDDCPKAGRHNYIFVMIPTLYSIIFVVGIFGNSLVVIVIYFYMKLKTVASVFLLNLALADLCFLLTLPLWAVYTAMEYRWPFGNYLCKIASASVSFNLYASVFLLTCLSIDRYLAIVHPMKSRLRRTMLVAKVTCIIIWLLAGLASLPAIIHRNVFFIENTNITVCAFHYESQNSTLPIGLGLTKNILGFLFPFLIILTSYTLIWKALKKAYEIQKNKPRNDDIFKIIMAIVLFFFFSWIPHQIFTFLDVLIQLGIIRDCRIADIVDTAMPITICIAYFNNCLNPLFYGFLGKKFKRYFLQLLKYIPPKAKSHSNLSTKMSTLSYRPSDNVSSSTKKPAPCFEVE

The next experiment deals with D(3) dopamine receptor (Homo sapiens, UniProt P35462).
Experiment [6] has as its target Beta-1 adrenergic receptor (Homo sapiens, UniProt P08588). The format is functional.
Also: assay procedure not described here.

Chain of 5-hydroxytryptamine receptor 2B (P41595 whole entry): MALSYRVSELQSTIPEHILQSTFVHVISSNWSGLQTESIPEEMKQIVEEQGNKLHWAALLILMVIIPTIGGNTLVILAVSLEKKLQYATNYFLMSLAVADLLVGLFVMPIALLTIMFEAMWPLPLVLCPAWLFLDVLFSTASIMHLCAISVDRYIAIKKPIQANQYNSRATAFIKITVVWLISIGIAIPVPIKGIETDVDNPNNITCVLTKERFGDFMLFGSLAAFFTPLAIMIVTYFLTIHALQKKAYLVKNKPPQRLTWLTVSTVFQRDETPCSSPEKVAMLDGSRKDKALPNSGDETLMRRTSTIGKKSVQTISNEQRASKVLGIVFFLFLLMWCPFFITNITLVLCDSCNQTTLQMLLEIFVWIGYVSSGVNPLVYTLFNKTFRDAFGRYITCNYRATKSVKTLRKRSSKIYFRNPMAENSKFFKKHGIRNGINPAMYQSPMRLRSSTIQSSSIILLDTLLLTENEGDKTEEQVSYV
Chain of D(3) dopamine receptor (P35462 whole entry): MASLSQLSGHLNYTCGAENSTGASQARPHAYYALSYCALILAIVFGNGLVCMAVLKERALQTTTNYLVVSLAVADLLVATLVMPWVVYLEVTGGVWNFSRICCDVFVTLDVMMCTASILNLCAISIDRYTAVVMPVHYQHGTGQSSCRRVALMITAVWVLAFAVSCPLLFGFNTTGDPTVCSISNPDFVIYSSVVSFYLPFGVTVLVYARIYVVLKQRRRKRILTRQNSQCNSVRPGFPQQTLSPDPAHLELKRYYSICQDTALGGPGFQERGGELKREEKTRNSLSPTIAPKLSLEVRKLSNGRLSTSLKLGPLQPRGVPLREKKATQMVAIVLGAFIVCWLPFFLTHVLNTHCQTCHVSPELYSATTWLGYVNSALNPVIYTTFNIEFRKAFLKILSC
Chain of Beta-1 adrenergic receptor (P08588 whole entry): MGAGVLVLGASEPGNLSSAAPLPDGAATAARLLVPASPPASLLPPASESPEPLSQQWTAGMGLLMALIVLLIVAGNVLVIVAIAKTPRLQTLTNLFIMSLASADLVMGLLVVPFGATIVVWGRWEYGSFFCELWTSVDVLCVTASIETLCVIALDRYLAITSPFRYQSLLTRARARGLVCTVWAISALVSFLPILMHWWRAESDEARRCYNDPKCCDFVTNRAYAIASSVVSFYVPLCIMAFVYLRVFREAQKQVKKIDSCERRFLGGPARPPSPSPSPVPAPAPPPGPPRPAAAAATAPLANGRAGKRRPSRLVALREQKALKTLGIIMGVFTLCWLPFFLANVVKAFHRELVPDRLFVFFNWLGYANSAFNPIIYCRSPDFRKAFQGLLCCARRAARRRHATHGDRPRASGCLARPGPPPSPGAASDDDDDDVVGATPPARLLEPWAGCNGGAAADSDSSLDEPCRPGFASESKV
Chain of cGMP-inhibited 3',5'-cyclic phosphodiesterase 3A (Q14432 whole entry): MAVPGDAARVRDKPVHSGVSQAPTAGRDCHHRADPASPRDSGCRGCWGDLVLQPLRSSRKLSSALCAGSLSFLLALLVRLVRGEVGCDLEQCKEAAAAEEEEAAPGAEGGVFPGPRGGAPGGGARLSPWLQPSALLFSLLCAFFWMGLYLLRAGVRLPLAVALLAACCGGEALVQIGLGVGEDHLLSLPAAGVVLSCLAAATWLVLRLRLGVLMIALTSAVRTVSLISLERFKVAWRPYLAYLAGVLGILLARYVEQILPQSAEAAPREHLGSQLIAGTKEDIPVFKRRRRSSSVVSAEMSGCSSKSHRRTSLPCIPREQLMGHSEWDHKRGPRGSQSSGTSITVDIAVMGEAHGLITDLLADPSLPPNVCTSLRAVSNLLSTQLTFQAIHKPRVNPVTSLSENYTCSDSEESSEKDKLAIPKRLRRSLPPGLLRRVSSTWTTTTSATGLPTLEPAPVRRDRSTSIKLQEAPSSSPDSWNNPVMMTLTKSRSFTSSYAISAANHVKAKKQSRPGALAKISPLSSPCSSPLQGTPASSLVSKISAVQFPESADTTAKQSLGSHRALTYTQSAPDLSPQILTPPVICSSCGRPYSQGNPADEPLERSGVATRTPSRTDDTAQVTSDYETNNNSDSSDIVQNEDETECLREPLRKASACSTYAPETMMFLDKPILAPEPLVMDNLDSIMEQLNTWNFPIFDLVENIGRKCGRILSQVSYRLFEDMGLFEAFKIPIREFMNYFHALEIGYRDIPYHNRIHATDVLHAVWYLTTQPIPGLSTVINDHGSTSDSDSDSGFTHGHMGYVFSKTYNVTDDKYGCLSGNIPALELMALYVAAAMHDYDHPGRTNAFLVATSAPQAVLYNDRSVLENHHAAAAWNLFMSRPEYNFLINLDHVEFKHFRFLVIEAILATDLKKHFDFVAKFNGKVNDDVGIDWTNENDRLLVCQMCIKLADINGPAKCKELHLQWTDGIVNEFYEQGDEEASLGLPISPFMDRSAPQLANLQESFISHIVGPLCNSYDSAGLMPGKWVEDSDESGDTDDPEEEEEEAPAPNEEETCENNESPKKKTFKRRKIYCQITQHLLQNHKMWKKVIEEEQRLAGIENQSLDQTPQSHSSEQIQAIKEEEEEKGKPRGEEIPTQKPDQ
Chain of Growth hormone secretagogue receptor type 1 (Q92847 whole entry): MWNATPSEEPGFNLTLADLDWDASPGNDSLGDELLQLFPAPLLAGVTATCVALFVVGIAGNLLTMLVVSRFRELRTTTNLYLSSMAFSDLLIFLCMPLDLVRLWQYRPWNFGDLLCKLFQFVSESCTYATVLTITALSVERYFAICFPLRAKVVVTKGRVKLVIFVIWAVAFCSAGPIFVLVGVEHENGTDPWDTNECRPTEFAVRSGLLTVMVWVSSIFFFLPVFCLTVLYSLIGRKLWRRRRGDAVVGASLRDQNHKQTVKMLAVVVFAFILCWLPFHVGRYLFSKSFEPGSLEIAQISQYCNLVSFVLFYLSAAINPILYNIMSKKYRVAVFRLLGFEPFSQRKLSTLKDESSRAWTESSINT

`O=c1c(O)c(-c2ccc(O)c(O)c2)oc2cc(O)cc(O)c12` [QUERCETIN]: the half-maximal activity concentration (AC50) is over 30 µM in [1]; over 30 µM at B2 bradykinin receptor; over 30 µM in experiment [2]; 4.2 µM on Adenosine receptor A3; over 30 µM in [3]; over 10 µM in experiment [4]. The AC50 (in [5]; at D(3) dopamine receptor) was over 30 µM in each case.
Turning to `CC1=C(/C=C/C(C)=C/C=C/C(C)=C/CO)C(C)(C)CCC1` [RETINOL], the AC50 is over 10 µM in [1]; over 10 µM on B2 bradykinin receptor; over 10 µM in [2]; over 10 µM at Adenosine receptor A3; over 30 µM in experiment [3]; over 10 µM in experiment [4]. The AC50 was over 30 µM in experiment [5], over 30 µM on D(3) dopamine receptor and over 10 µM in [6].
Consider `CCCN(CCC)S(=O)(=O)c1ccc(C(=O)O)cc1` [PROBENECID], for which the AC50 in experiment [1] was over 10 µM; on B2 bradykinin receptor, over 10 µM; in experiment [2], over 10 µM; at Adenosine receptor A3, over 10 µM; in experiment [3], over 30 µM; in [4], over 10 µM. The figures for the AC50 (in experiment [5]; at D(3) dopamine receptor; in [6]) were over 10 µM, over 30 µM and over 10 µM, respectively.
On to `NS(=O)(=O)c1cc2c(cc1Cl)N=C(CSCc1ccccc1)NS2(=O)=O` [BENZTHIAZIDE], for which the concentration at half-maximal activity (AC50) in [1] was over 10 µM; at B2 bradykinin receptor, over 10 µM; in experiment [2], over 10 µM; on Adenosine receptor A3, over 10 µM; in experiment [3] it was over 30 µM; in experiment [4], over 10 µM. Also, the AC50 is over 10 µM in experiment [5], over 30 µM on D(3) dopamine receptor and over 10 µM in experiment [6].
`O=C(c1cc(Cc2n[nH]c(=O)c3ccccc23)ccc1F)N1CCN(C(=O)C2CC2)CC1` [OLAPARIB]: the AC50 in experiment [1] was over 30 µM; at B2 bradykinin receptor it was over 30 µM; in experiment [2], over 10 µM; on Adenosine receptor A3 it was over 30 µM; in experiment [3], 24 µM; in [4] it was over 10 µM. In addition, the AC50 (in experiment [5]; at D(3) dopamine receptor; in experiment [6]) was over 30 µM in each case.
Take `NC(=O)NC(=O)Cc1ccccc1` [PHENACEMIDE]: the AC50 in experiment [1] is over 10 µM; at B2 bradykinin receptor, over 10 µM; in [2], over 10 µM; at Adenosine receptor A3, over 10 µM; in [3], over 30 µM; in [4], over 10 µM. Moreover, the AC50 is over 10 µM in experiment [5], over 30 µM on D(3) dopamine receptor and over 10 µM in experiment [6].
Take `O=C(O)c1ccc(NC(=O)[C@H](Cc2ccc(O)cc2)NC(=O)c2ccccc2)cc1` [BENTIROMIDE]: the AC50 was over 10 µM in experiment [1]; over 10 µM on B2 bradykinin receptor; over 10 µM in experiment [2]; over 10 µM at Adenosine receptor A3; over 30 µM in experiment [3]; over 10 µM in experiment [4]. The AC50 in [5] is over 10 µM; on D(3) dopamine receptor, over 30 µM; in experiment [6] it was over 10 µM.
`CC(C)[C@@H](C)/C=C/[C@@H](C)[C@H]1CC[C@H]2/C(=C/C=C3\C[C@@H](O)CC[C@@H]3C)CCC[C@]12C` [DIHYDROTACHYSTEROL]: the AC50 is over 10 µM in [1]; over 10 µM on B2 bradykinin receptor; over 10 µM in experiment [2]; over 10 µM at Adenosine receptor A3; over 30 µM in [3]; over 10 µM in [4]. In addition, the values for the AC50 (in experiment [5]; at D(3) dopamine receptor; in [6]) were over 10 µM, over 30 µM and over 10 µM, respectively.
In the case of `CCC1(CCC(C)C)C(=O)NC(=O)NC1=O` [AMOBARBITAL], the half-maximal activity concentration (AC50) is over 10 µM in [1]; over 10 µM at B2 bradykinin receptor; over 10 µM in [2]; over 10 µM on Adenosine receptor A3; over 30 µM in experiment [3]; over 10 µM in experiment [4]. Further, the AC50 in experiment [5] is over 10 µM; at D(3) dopamine receptor it was over 30 µM; in experiment [6], over 10 µM.
On to `CCCCCCCC(=O)CC[C@@H]1[C@@H](C/C=C\CCCC(=O)OC(C)C)[C@@H](O)C[C@H]1O` [UNOPROSTONE ISOPROPYL], for which the AC50 in [2] is over 30 µM; at Adenosine receptor A3, 5.6 µM; in experiment [3], over 30 µM; at D(3) dopamine receptor it was over 30 µM.
In the case of `O=C(O)CCNC(=O)c1ccc(/N=N/c2ccc(O)c(C(=O)O)c2)cc1` [BALSALAZIDE], the concentration at half-maximal activity (AC50) in [1] is over 30 µM; at B2 bradykinin receptor, over 30 µM; in experiment [2] it was over 30 µM; on Adenosine receptor A3 it was 27.4 µM; in [3], over 30 µM; in experiment [4], over 30 µM. Also, the AC50 is 27.6 µM in experiment [5], over 30 µM at D(3) dopamine receptor and over 30 µM in [6].
Turning to `Fc1ccc([C@@H]2CCNC[C@H]2COc2ccc3c(c2)OCO3)cc1` [PAROXETINE], the AC50 in experiment [1] was over 30 µM; on B2 bradykinin receptor, over 30 µM; in experiment [2], 9.9 µM and > 30 µM; at Adenosine receptor A3, 22.5 µM; in experiment [3], over 30 µM; in experiment [5], over 30 µM. For the same compound, the AC50 (on D(3) dopamine receptor; in [6]) was over 10 µM each time.
As to `Cc1cc(C)nc(NS(=O)(=O)c2ccc(N)cc2)n1` [SULFAMETHAZINE], the AC50 in experiment [1] is over 10 µM; on B2 bradykinin receptor, over 10 µM; in experiment [2] it was over 10 µM; on Adenosine receptor A3, over 10 µM; in experiment [3], over 30 µM; in experiment [4], over 10 µM. Also, the concentration at half-maximal activity (AC50) in experiment [5] is over 10 µM; at D(3) dopamine receptor, over 30 µM; in [6] it was over 10 µM.
As to `CC(C)NC[C@H](O)COc1ccc(CC(N)=O)cc1` [ESATENOLOL], the AC50 in experiment [1] is over 30 µM; on B2 bradykinin receptor, over 30 µM; at Adenosine receptor A3, over 30 µM; in experiment [3] it was over 10 µM; in experiment [4] it was over 10 µM; in experiment [5], over 30 µM. For the same compound, at D(3) dopamine receptor, the half-maximal activity concentration (AC50) is over 10 µM.
Take `C[C@@H]1C[C@H]2[C@@H]3CCC4=CC(=O)C=C[C@]4(C)[C@@]3(F)[C@@H](O)C[C@]2(C)[C@@]1(O)C(=O)CO` [DEXAMETHASONE]: the half-maximal activity concentration (AC50) in [1] was over 30 µM; on B2 bradykinin receptor, over 30 µM; in experiment [2], over 10 µM; at Adenosine receptor A3, over 30 µM; in [3] it was over 30 µM; in [4] it was over 10 µM. In addition, the AC50 (in experiment [5]; at D(3) dopamine receptor; in [6]) was over 30 µM in each case.
Regarding `COc1ccc(C2C(=O)c3ccccc3C2=O)cc1` [ANISINDIONE], the AC50 is over 10 µM in experiment [1]; over 10 µM on B2 bradykinin receptor; over 10 µM in [2]; over 10 µM on Adenosine receptor A3; over 30 µM in experiment [3]; over 10 µM in [4]. The AC50 in [5] is over 10 µM; on D(3) dopamine receptor, over 30 µM; in [6] it was over 10 µM.
For the compound `CCCC(C)(COC(N)=O)COC(N)=O` [MEPROBAMATE], the half-maximal activity concentration (AC50) is over 10 µM in experiment [1]; over 10 µM at B2 bradykinin receptor; over 10 µM in experiment [2]; over 10 µM on Adenosine receptor A3; over 30 µM in experiment [3]; over 10 µM in [4]. Also, the values for the AC50 (in [5]; on D(3) dopamine receptor; in experiment [6]) were over 10 µM, over 30 µM and over 10 µM, respectively.
